Key:
[1] = test system: human blood cancer cell lines (K562, HEL, HL60); experiment: MTT cell viability, human blood cancer cell lines; assay type: cell-based; settings: 0-10 μM, 24-96 h
Experimental: (§2) Liver cancer cell lines (HepG2, Hep3B) were inoculated into 96-well plates at a density of 3000 cells/well, and then 50 μl of culture solution was added thereto. Cells were cultured at 37° C. and 5% CO2 for 1 h. […] Cells were cultured at 37° C. and 5% CO2 for 24, 48, 72, and 96 h. After completion of the culture, the remaining culture solution was removed from the well plates, the cultures were diluted with MTT solution (3-(4,5-dimethylthiazol-2-yl)-2,5-diphenyltetrazole bromide) to a final density of 500 μg/ml, and cells were cultured at 37° C. and 5% CO2 for 3 h. The remaining MTT solution was removed and 150 μl of dimethyl sulfoxide (DMSO) was added. The reaction was carried out at room temperature for 20 min. After completion of the reaction, absorbance was measured using a microplate reader.

[2] = test system: MDA-MB-231 cell line (LM1 cells) tumors and lung metastasis; experiment: Mouse model transplanted with MDA-MB-231 (LM1) breast cancer cell line; assay type: in vivo
Experimental: The collected blood was subjected to a fundamental CBC using a Coulter LH 750 Hematology analyzer. After the tumors were weighed, the tumors and the major organs were stained with 4% formaldehyde. Tissue slices were prepared through paraffin section and stained with hematoxylin/eosin. Acquired data were statistically analyzed using the Excel program.

[3] = test system: liver cancer cell lines (HepG2, Hep3B); experiment: MTT cell viability, liver cancer cell lines; assay type: cell-based, human; settings: 0-10 μM, 24-96 h
Experimental: as §2

[4] = test system: human embryonic stem cells (hESCs, H9)
Text: MEF cells labeled with rhodamine were often used to distinguish them from hESC-derived cells.

[5] = test system: human embryonic kidney cancer cell line (293T); experiment: MTT cell viability, 293T; assay type: cell-based; settings: 0-10 μM, 24-96 h
Experimental: as §2

[6] = test system: normal cell lines (MCF10A, BEAS2B, hMSCs, mouse primary T cells)
Experimental: (§3) Liver cancer cell lines (HepG2, Hep3B), a human embryonic kidney cell line (293T), breast cancer cell lines (MCF-7, MDA-MB-231), blood tumor cell lines (K562, HEL, HL60), glioblastoma cell lines (U251, U373MG, U87MG), a mammary epithelial cell line (MCF10A), a lung epithelial cell line (BEAS2B), human mesenchymal stem cells (hMSCs), and mouse primary T cells (resting and activated T cells) were inoculated into 96-well plates at a density of 3,000 cells/well, supplemented with 50 μl of culture solution, and cultured at 37° C. and 5% CO2 for 1 h. […] After completion of the culture, cells were observed under an inverted phase contrast microscope and their morphological changes were imaged.

[7] = test system: A431 human epidermoid carcinoma cell line tumors; experiment: Mouse model transplanted with A431 epidermoid carcinoma cell line; assay type: in vivo; settings: 1.7 and 3.5 mg/kg, tail vein, every other day, five times, day 13
Experimental: After the tumors were weighed, the tumors and the major organs were stained with 4% formaldehyde. Tissue slices were prepared through paraffin section and stained with hematoxylin/eosin. Acquired data were statistically analyzed using the Excel program.

[8] = test system: MDA-MB-231 cell line; experiment: Electron microscopy of cell morphology, MDA-MB-231; assay type: cell-based, human; settings: 2 μM, 24 and 48 h
Text: The collected cells were washed once with physiological saline.

[9] = test system: MEL cell line; experiment: Cell cycle analysis by FACS, MEL; assay type: cell-based, mouse; settings: 0, 1, 2, 3, 10 μM, 48 h
Experimental: (§1) 5×10^5 cells of each of MEL, K562, MCF-10A, and MDA-MB-231 cell lines were inoculated into 100 mm dishes. 24 h after inoculation, cells were treated with Peptide 5-2C such that the final concentrations were 0, 1, 2, 3, and 10 μM. 48 h after Peptide 5-2C treatment, cells were collected by trypsin treatment. Thereafter, 1×10^6 cells were suspended in 0.5 ml PBS and dissociated into single cells by pipetting. The cell suspension was transferred to a centrifugal tube containing 4.5 ml of 70% ethanol and allowed to stand at 4° C. for 2 h to immobilize the cells. A cell sediment was obtained by centrifugation, washed with 5 ml of PBS solution, sufficiently suspended in 1 ml of PI staining solution, and stained in the dark for 30 min. Cell fluorescence was measured in BD FACSAria and cell cycle was analyzed using the software provided from the same company.

[10] = test system: U343 glioblastoma cell line tumors; experiment: Mouse model transplanted with U343 glioblastoma cell line; assay type: in vivo; settings: 3 mg/kg directly into tumor sites every three days, day 70, vs physiological saline
Experimental: U343 glioblastoma cell line (2.5×10^6 cells/50 μl) was injected subcutaneously into the backs of 5-week-old male BALB/C nude mice (n=6/group), Peptide 5-2C (3 mg/kg) was directly injected into the tumor sites every three days from the time when the tumor sizes increased to about 8 mm^2, the body weights of the mice and the volumes of the tumors were measured, the mice were sacrificed on day 70 after the peptide injection, and the tumors, blood, and major organs were excised. The tumor sizes were measured using a vernier calipers and the tumor volumes were calculated by (major axisxminor axis^2)/2. Peripheral blood was collected from the ophthalmic artery of each mouse using a microcapillary coated with EDTA and stored in a sample tube coated with 5.4 mg EDTA. The tumors and the major organs were excised by dissection. The collected blood was subjected to a fundamental complete blood cell count (CBC) using a Coulter LH 750 Hematology analyzer. After the tumors were weighed, the tumors and the major organs were stained with 4% formaldehyde. Tissue slices were prepared through paraffin section and stained with hematoxylin/eosin. Acquired data were statistically analyzed using the Excel program.

[11] = test system: human embryonic stem cell line (H9) and co-cultured cells; experiment: Microscopy of human embryonic stem cell line (H9) in co-culture; assay type: cell-based
Experimental: Two colonies of a human embryonic stem cell line (H9) per well were inoculated into 96-well plates on which normal embryonic epithelial cells or embryonic epithelial cells fluorescently stained with rhodamine were plated, followed by culture for 24 h.

[12] = test system: MCF10A cell line
Experimental: 1.5×10^6 cells of MDA-MB-231 cell line and 5×10^5 cells of MCF10A cell line were inoculated into 100 mm dishes. […] After culture for 24 and 48 h, cells were collected. The culture solution was centrifuged and surface adherent cells were collected by trypsin treatment. The collected cells were washed once with physiological saline. The cell sediment was directly treated twice with 2.5% aqueous glutaraldehyde solution (each for 10 min). Samples for electron microscopy were prepared and imaged in accordance with general methods.

[13] = test system: glioblastoma cell lines (U251, U87MG, U343); experiment: MTT cell viability, glioblastoma cell lines; assay type: cell-based, human; settings: 0-10 μM, 24-96 h
Experimental: as §2

[14] = test system: MCF7 cell line; experiment: Western blotting of cell cycle-related marker proteins in MCF7; assay type: cell-based, human; settings: 2 μM for 0-72 h; 1, 2, 3 μM for 48 h
Experimental: 1×10^5 cells of MCF7 breast cancer cell line were inoculated into a 6-well plate. 24 h after inoculation, cells were treated with Peptide 5-2C at a final concentration of 2 μM. After 0, 24, 48, and 72 h, cell extracts were collected in the same manner as in Example 6. Western blotting was performed using various antibodies against cell cycle-related marker genes. On the other hand, cell extracts were obtained from the groups treated with Peptide 5-2C at final concentrations of 1, 2, and 3 μM for 48 h and Western blotting was performed in the same manner.

[15] = test system: K562 cell line and MDA-MB-231 cell line; experiment: Cell cycle analysis by FACS, K562 and MDA-MB-231; assay type: cell-based, human; settings: 0, 1, 2, 3, 10 μM, 48 h
Experimental: as §1

[16] = test system: CD34+ hematopoietic progenitor cells (HPCs); experiment: Microscopy of hematopoietic progenitor cells and cells differentiating into erythrocytes; assay type: cell-based, human; settings: up to 10 μM, 72 h; days 3, 7, 14 of differentiation
Experimental: Cells were observed under an inverted phase contrast microscope and their morphological changes were imaged. The CD34+ hematopoietic progenitor cells were cultured in IMDM media containing 1% BSA. For differentiation induction into erythrocytes, cells were cultured with EPO, SCF, IL-3, and hydrocortisone for the first 7 days, and thereafter, cultured in media supplemented with EPO, SCF, and IL-3 only.

[17] = test system: MCF-7, 293T, MDA-MB-231 mammospheres; experiment: Mammosphere culture of cancer cell lines, microscopy; assay type: cell-based, human; settings: 2 μM, 4 days
Text: Cancer cell lines (MCF-7, 293T, MDA-MB-231) were inoculated at a density of 1×10^4 cells/ml into polyHEMA-coated 100 phi Petri dishes. […] Cells were observed under an inverted phase contrast microscope once a day and their morphological changes were imaged. […] Mammosphere culture of cancer cell lines is known to increase the number of cancer stem cells.

[18] = test system: glioblastoma cell lines (U343, U373MG, U251, U87MG); experiment: IC50 of Peptide 5-2C over time in glioblastoma cell lines; assay type: cell-based, human; settings: one-time treatment
Experimental: After one-time treatment of various glioblastoma cell lines (U343, U373MG, U251, and U87MG) with Peptide 5-2C, IC50 values were measured with time using the Graph Prism Pad 6 program.

[19] = test system: human mesenchymal stem cells (hMSC)
[20] = test system: breast cancer cell lines (MCF7, MDA-MB-231); experiment: MTT cell viability, breast cancer cell lines; assay type: cell-based, human; settings: 0-10 μM, 24-96 h
Experimental: as §2

[21] = test system: MCF-10A cell line; experiment: Cell cycle analysis by FACS, MCF-10A; assay type: cell-based, human; settings: 0, 1, 2, 3, 10 μM, 48 h
Experimental: as §1

[22] = test system: CP2c; experiment: Luciferase reporter assay of CP2c transcriptional activity in 293T cells; assay type: cell-based, human; settings: 2 μM, 48 h, wild-type CP2c binding sites, compared with FQI1
Experimental: 293T cells were inoculated into a 12-well plate at a density of 1×10^5 cells/well. 12 h after inoculation, cells were transfected with combinations of a reporter vector (the wild-type reporter links the enhancer sequence of the GATA-1 gene including twice repeated CP2c-binding sites to the upstream of the luciferase gene and Mut 1/3, Mut 2/4, and Mut 1-4 reporters cause mutations of the CP2c binding sites present in the enhancer sequence) and various Flag-CP2c, HA-CP2b, and HA-PIAS1 expression vectors by using the effectene method. After 1-h culture, cells were treated with FQI1, Peptide 5C, and Peptide 5-2C at concentrations of 2 μM, followed by 48-h culture. Cells were harvested and lysed in 250 μl of passive cell lysis buffer (Promega) to obtain an extract. 20 μl of the cell extract and a dual-luciferase assay kit (Promega) were used to measure the activity of the labeled luciferase gene in GLOMAX (Promega) (the expression of each expression vector was confirmed by Western blotting).

[23] = test system: cancer cell lines (HepG2, Hep3B, 293T, MCF-7, MDA-MB-231, K562, HEL, HL60, U251, U373MG, U87MG); experiment: Microscopic observation of growth inhibition and apoptosis, cancer cell lines; assay type: cell-based, human; settings: 2 μM, 48 h
Experimental: as §3

[24] = 1.7 and 3.5 mg/kg, tail vein, every three days, five times, day 30, vs control

Q: What does the source list for “NYPQRPCRGDKGPDC [Peptide 5-2C, Ac-NYPQRPCRGDKGPDC-Amide]”?
A: relative viability (MTT), K562, HEL, HL60, compared with FQI1 [1]: slightly effectively inhibited the growth of the glioblastoma cell lines and induced apoptosis compared to FQI1; reduction of number of tumor foci metastasized to the lung [2, 24]: ~50%; reduction of tumor weights [2, 24]: ~30%; number of leukocytes ([2]; control tumor mice had twice the number of normal mice): close to the normal value; relative viability (MTT), liver cancer cell lines, compared with FQI1 [3]: more effectively inhibited the growth of the liver cancer cell lines and induced apoptosis than FQI1; cytotoxicity (MTT) in hESCs [4]: no substantial cytotoxicity even at high concentrations; relative viability (MTT), 293T, compared with FQI1 [5]: inhibited the growth of the glioblastoma cell lines and induced apoptosis similarly to FQI1; effect on normal cell lines (microscopy) [6]: without substantially affecting the normal cell lines; histologic/anatomic characteristics of the major organs [7]: no significant changes in the histologic/anatomic characteristics of the major organs; reduction of tumor volume [7]: ≥ 70%; reduction of tumor weight [7]: ≥ 60%; intracellular structural abnormalities in MDA-MB-231 (electron microscopy) [8]: significantly different intracellular structural abnormalities were observed in the Peptide 5-2C-treated group compared to in the FQI1-treated group; number of cells in subG1 phase in MEL [9]: the number of cells in the subG1 phase was significantly increased only at high concentrations; body weight, major CBC indices, histologic/anatomic characteristics of major organs [10]: there were no differences in the weight of the mice, the major CBC indices of the mice, and the histologic/anatomic characteristics of the major organs; reduction of tumor volume [10]: ~60%; reduction of tumor weight [10]: ~60%; death of embryonic stem cells and co-cultured cells [11]: none of the embryonic stem cells and the co-cultured cells died; intracellular structural abnormalities in MCF10A (electron microscopy) [12]: no intracellular structural abnormalities were observed; relative viability (MTT), glioblastoma cell lines, compared with FQI1 [13]: more effectively inhibited the growth of the glioblastoma cell lines and induced apoptosis than FQI1; expression of cell cycle-related marker proteins [14]: the expressions of Cyclin E, p21, and p53 increased gradually and the expressions of CDK1 and Cyclin B1 decreased gradually; cell cycle phase distribution in K562 and MDA-MB-231 [15]: the number of cells in the S phase was decreased, the number of cells in the G2/M phase was increased, and an increase in the number of cells in the subG1 phase was dependent on the concentration of Peptide 5-2C; growth inhibition and apoptosis of HPCs and cells differentiating into erythrocytes (microscopy) [16]: growth inhibition and apoptosis of the cells were not observed; formation of mammospheres and cell growth [17]: the formation of mammospheres was effectively inhibited and cell growth was decreased; IC50 at 48 h compared with 96 h [18]: the IC50 values after 48 h were similar to those after 96 h; cytotoxicity (MTT) in hMSC [19]: no substantial cytotoxicity even at high concentrations; relative viability (MTT), breast cancer cell lines, compared with FQI1 [20]: more effectively inhibited the growth of the breast cancer cell lines and induced apoptosis than FQI1; cell cycle changes in MCF-10A [21]: no substantial changes in cell cycle were observed; CP2c-mediated transcriptional activity (luciferase reporter) [22]: effectively inhibit CP2c-mediated transcriptional activity compared to FQI1; growth inhibition and apoptosis induction of cancer cell lines (microscopy) [23]: specifically inhibited the growth of the cancer cell lines and induced apoptosis
